{
  "source": "patent US10039806B2",
  "about": "“Methods and compositions for treating antiprogestin-resistant cancers” (Fundación Sales, priority 2011, dated 2018)",
  "key": {"[1]": {"test_system": "HI-responsive tumors", "conditions": "daily doses of 10 mg/kg; cited from earlier work"}, "[2]": {"test_system": "breast cancer", "conditions": "cited from earlier work"}, "[3]": {"target": "T1, glucocorticoid receptor (Homo sapiens, UniProt P04150)", "T1 sequence (P04150 1-777)": "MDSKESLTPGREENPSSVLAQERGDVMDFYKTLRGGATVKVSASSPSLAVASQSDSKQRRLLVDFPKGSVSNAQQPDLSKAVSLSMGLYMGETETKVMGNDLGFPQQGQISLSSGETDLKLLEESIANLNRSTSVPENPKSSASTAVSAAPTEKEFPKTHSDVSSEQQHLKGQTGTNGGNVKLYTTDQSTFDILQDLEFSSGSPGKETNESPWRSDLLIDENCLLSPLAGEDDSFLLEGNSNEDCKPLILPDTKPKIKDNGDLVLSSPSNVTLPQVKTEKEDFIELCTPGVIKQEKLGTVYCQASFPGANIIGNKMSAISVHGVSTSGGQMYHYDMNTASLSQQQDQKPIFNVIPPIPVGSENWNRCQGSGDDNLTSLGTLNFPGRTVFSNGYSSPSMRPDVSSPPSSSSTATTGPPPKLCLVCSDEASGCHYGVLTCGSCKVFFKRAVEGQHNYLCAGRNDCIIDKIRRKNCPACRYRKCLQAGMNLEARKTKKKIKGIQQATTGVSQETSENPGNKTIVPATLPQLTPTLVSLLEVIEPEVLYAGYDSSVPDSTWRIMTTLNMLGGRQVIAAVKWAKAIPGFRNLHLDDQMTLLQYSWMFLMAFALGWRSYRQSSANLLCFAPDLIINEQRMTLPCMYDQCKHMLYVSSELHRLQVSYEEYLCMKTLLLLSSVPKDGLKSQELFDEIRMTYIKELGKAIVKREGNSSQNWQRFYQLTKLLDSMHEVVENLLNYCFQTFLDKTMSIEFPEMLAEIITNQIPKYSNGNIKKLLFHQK", "conditions": "cited from earlier work"}, "[4]": {"test_system": "mammary gland", "conditions": "cited from earlier work"}, "[5]": {"test_system": "epithelial cells from breast cancer samples", "experiment": "Primary cultures from breast cancer samples: cell number or Ki67", "assay_type": "cell-based, human", "excerpt": "The samples were obtained at surgery from patients diagnosed with breast cancer at the […]. de Martinez Hospital from General Pacheco and at the […] Hospital of Buenos Aires after signing the informed consent (n=70; median age 55 year). Protocols were approved by the Institutional Ethical Review Board. Whenever possible, one piece of the sample was kept in dry ice immediately after surgery and another piece was kept in culture medium and transported to IBYME. Tumor samples were processed by mechanical and enzymatic degradation and epithelial cells were purified by differential sedimentation techniques (7). The epithelial cells were cultured with DMEM/F12 medium plus 10% fetal calf serum (FCS). Once the cultures were overcrowded, they were subcultured and equal numbers of cells were seeded in 24 well plates. […] OH-Tamoxifen was also used as a control. After one week of treatment, the cells were trypsinized and the total number of cells in each well was counted or alternatively, they were fixed to evaluate the Ki67 (proliferation marker) expression by IHC. In several cases in which there were carcinoma associated fibroblasts intermingled with the epithelial cells, a double staining of Ki67 and cytokeratin (CK) was performed to consider the proliferating cells among the total number of epithelial cells (CK+). An inhibitory index was calculated for each tumor."}, "[6]": {"conditions": "28 postmenopausal PR+ patients, 200 mg/day"}},
  "data": [
    {"molecule": "CC#C[C@]1(O)CC[C@H]2[C@@H]3CCC4=CC(=O)CCC4=C3[C@@H](c3ccc(N(C)C)cc3)C[C@@]21C", "note": "[RU-486, mifepristone]", "values": [
      {"measurement": "tumor regression", "setting": "[1]", "result": "regress"},
      {"measurement": "response rate", "setting": "[2]; 22 patients, TAM-resistant metastases, 200 mg/day, following 3 months of therapy", "result": 18, "unit": "%"},
      {"measurement": "side effects: lethargy", "setting": "[2]; 28 postmenopausal PR+ patients, 200 mg/day, more than 8 weeks", "result": 68, "unit": "%"},
      {"measurement": "partial response", "setting": "[2]; [6]", "result": 3, "unit": "patients"},
      {"measurement": "side effects: anorexia", "setting": "[2]; [6]", "result": 39, "unit": "%"},
      {"measurement": "side effects: hot flashes", "setting": "[2]; [6]", "result": 50, "unit": "%"},
      {"measurement": "side effects: skin rash", "setting": "[2]; [6]", "result": 32, "unit": "%"},
      {"measurement": "side effects: vomiting", "setting": "[2]; [6]", "result": 29, "unit": "%"},
      {"measurement": "clinical response", "setting": "[2]; eleven patients with metastases, 200-400 mg daily p.o.", "result": "objective response in one patient, six patients showed temporal stabilization, and four patients had progressive disease"},
      {"measurement": "antiglucocorticoid activity", "setting": "[3]", "result": "antiglucocorticoid effects, albeit at concentrations higher than those needed for its antiprogestin activity"},
      {"measurement": "PR activation in luminal cells", "setting": "[4]; (5 mg/kg) body weight", "result": "induced activation of the PR in luminal cells to an even greater degree than did the pure agonist R5020"},
      {"measurement": "MPA-induced branching", "setting": "[4]; BALB/c female mice, 10 mg/kg daily, one week", "result": "reverted MPA-induced branching"},
      {"measurement": "mammary hyperplasia", "setting": "[4]; PR-A transgenic mice or FGF2-treated mice", "result": "unable to revert mammary hyperplasia"},
      {"measurement": "number of cells as compared to the controls", "setting": "[5]; 10^-8 M, one week, 3 out of 8 cases, p<0.05", "result": "significant decrease in the number of cells"},
      {"measurement": "cell proliferation, case #137", "setting": "[5]; ER+ PR+ invasive ductal carcinoma, high PR-A/PR-B, 10^-8 M", "result": "decrease in cell proliferation"},
      {"measurement": "effect on cell proliferation", "setting": "[5]; samples with high levels of PR-A expression", "result": "inhibitory effect"},
      {"measurement": "in vitro responsiveness", "setting": "[5]; three PR negative tumors", "result": "no in vitro responsiveness"}
    ]}
  ]
}
